Counter-ions that a name gives are not always drawn.
Test system: prurigo nodularis patients
Test: TR03ext (Example 3), titrated 30 mg QD to 180 mg BID: itchy Verbal Rating Scale (VRS)
Assay type: in vivo, human
Settings: for VRS Itch Visit Mean (SD): Baseline 2.7 (0.8)
From the text: This clinical study was a Phase 2 Open Label Extension Study (clinical study TR03ext) of the randomized, double-blind, 3-parallel arm, placebo controlled dose ranging study described in Example 2. All those subjects who were randomized, and then completed Example 2 study, were eligible to participate in the Extension Study.
The primary endpoint was a description of the overall incidence and nature of Treatment-Emergent AEs (TEAES) during weeks 5-50 of the study. Exploratory efficacy endpoints included Change from Baseline patient reported outcome measures of Worst itch NRS, itchy VRS and ItchyQoL, by Treatment Period study visit and Baseline NRS score. There was also an assessment of any potential skin lesion changes over time using the metrics of the PAS.
Of the 63 patients that were randomized to the study of Example 2, 36 subjects who enrolled into Extension Study entered the Treatment Period of the study and were exposed to nalbuphine HCl ER tablet administration and are the basis of the study safety population analysis.
Patients in Extension Study were titrated over a dose range of 30 mg QD to 180 mg BID based on tolerability. The selected dose range was based on Example 2 study whereby patients were titrated from a 30 mg QD dose either to 30 mg BID, 60 mg BID, 90 mg BID, 120 mg BID or a 180 mg BID dose. The highest dose proposed was 180 mg BID (360 mg daily dose), and was well below the highest recommended daily treatment of 160 mg IV (equivalent to 960 mg oral) for the current marketed parenteral administered product.
The study duration for each patient was up to 52 weeks, with up to 50 weeks on study drug. The Extension Study consisted of a Treatment Period (that was followed by a Washout Safety Follow-up Period) and an Observation Period. Patients either entered directly into a drug Treatment Period (NRS >5) or a no-drug Observation Period (NRS ≤5) based on their reported NRS scores on the first Visit (Visit 1a). For up to 12 Extended Screening weeks, patients in the no-drug Observation Period could have also transitioned into the drug Treatment Period if their NRS increased to NRS >5. All patients entering the Treatment Period, whether immediately upon study entry or following a period of time in the Observation Period, were titrated to a dose ranging between 30 mg up to 180 mg BID, the highest dose tested in Example 2.

[1] = Patients With At Least 6 Months of Treatment N = 18
[2] = Patients With At Least 9 Months of Treatment N = 15

## Oc1ccc2c3c1OC1[C@@H](O)CC[C@@]4(O)[C@@H](C2)N(CC2CCC2)CC[C@]314 (stereo partly drawn) [Nalbuphine, 17-(cyclobutylmethyl)-4,5α-epoxymorphinian-3, 6α, 14-triol, hydrochloride]
All Patients N = 36
  VRS Itch Improvement Category 1 Grade Better, baseline to last observed value, patients (%): 16 (44.4%)
  VRS Itch Improvement Category 1 Grade Worse, baseline to last observed value, patients (%): 0
  VRS Itch Improvement Category 2-4 Grades Worse, baseline to last observed value, patients (%): 0
  VRS Itch Improvement Category 2 Grades Better, baseline to last observed value, patients (%): 9 (25.0%)
  VRS Itch Improvement Category 3 Grades Better, baseline to last observed value, patients (%): 1 (2.8%)
  VRS Itch Improvement Category 4 Grades Better, baseline to last observed value, patients (%): 0
  VRS Itch Improvement Category No Change, baseline to last observed value, patients (%): 3 (8.3%)
Completers N = 14
  VRS Itch Improvement Category 1 Grade Better, baseline to last observed value, patients (%): 5 (35.7%)
  VRS Itch Improvement Category 1 Grade Worse, baseline to last observed value, patients (%): 0
  VRS Itch Improvement Category 2-4 Grades Worse, baseline to last observed value, patients (%): 0
  VRS Itch Improvement Category 2 Grades Better, baseline to last observed value, patients (%): 7 (50.0%)
  VRS Itch Improvement Category 3 Grades Better, baseline to last observed value, patients (%): 0
  VRS Itch Improvement Category 4 Grades Better, baseline to last observed value, patients (%): 0
  VRS Itch Improvement Category No Change, baseline to last observed value, patients (%): 2 (14.3%)
[1]
  VRS Itch Improvement Category 1 Grade Better, baseline to last observed value, patients (%): 6 (33.3%)
  VRS Itch Improvement Category 1 Grade Worse, baseline to last observed value, patients (%): 0
  VRS Itch Improvement Category 2-4 Grades Worse, baseline to last observed value, patients (%): 0
  VRS Itch Improvement Category 2 Grades Better, baseline to last observed value, patients (%): 9 (50.0%)
  VRS Itch Improvement Category 3 Grades Better, baseline to last observed value, patients (%): 1 (5.6%)
  VRS Itch Improvement Category 4 Grades Better, baseline to last observed value, patients (%): 0
  VRS Itch Improvement Category No Change, baseline to last observed value, patients (%): 2 (11.1%)
[2]
  VRS Itch Improvement Category 1 Grade Better, baseline to last observed value, patients (%): 6 (40.0%)
  VRS Itch Improvement Category 1 Grade Worse, baseline to last observed value, patients (%): 0
  VRS Itch Improvement Category 2-4 Grades Worse, baseline to last observed value, patients (%): 0
  VRS Itch Improvement Category 2 Grades Better, baseline to last observed value, patients (%): 7 (46.7%)
  VRS Itch Improvement Category 3 Grades Better, baseline to last observed value, patients (%): 0
  VRS Itch Improvement Category 4 Grades Better, baseline to last observed value, patients (%): 0
  VRS Itch Improvement Category No Change, baseline to last observed value, patients (%): 2 (13.3%)
Study Week 3, N=34
  VRS Itch Mean (SD) Change from Baseline: −0.6 (0.9)
  VRS Itch Visit Mean (SD): 2.1 (1.1)
Study Week 5, N=33
  VRS Itch Mean (SD) Change from Baseline: −0.9 (1.0)
  VRS Itch Visit Mean (SD): 1.8 (1.0)
Study Week 9, N=30
  VRS Itch Mean (SD) Change from Baseline: −0.9 (0.8)
  VRS Itch Visit Mean (SD): 1.7 (0.9)
Study Week 13, N=25
  VRS Itch Mean (SD) Change from Baseline: −1.1 (0.8)
  VRS Itch Visit Mean (SD): 1.5 (0.8)
Study Week 17, N=25
  VRS Itch Mean (SD) Change from Baseline: −1.2 (1.2)
  VRS Itch Visit Mean (SD): 1.4 (1.0)
Study Week 21, N=22
  VRS Itch Mean (SD) Change from Baseline: −1.2 (0.8)
  VRS Itch Visit Mean (SD): 1.4 (0.7)
Study Week 26, N=21
  VRS Itch Mean (SD) Change from Baseline: −1.2 (0.9)
  VRS Itch Visit Mean (SD): 1.4 (0.9)
Study Week 30, N=20
  VRS Itch Mean (SD) Change from Baseline: −1.5 (0.8)
  VRS Itch Visit Mean (SD): 1.1 (0.8)
Study Week 34, N=18
  VRS Itch Mean (SD) Change from Baseline: −1.2 (0.8)
  VRS Itch Visit Mean (SD): 1.4 (0.6)
Study Week 38, N=17
  VRS Itch Mean (SD) Change from Baseline: −1.2 (0.7)
  VRS Itch Visit Mean (SD): 1.4 (0.6)
Study Week 42, N=17
  VRS Itch Mean (SD) Change from Baseline: −1.4 (0.6)
  VRS Itch Visit Mean (SD): 1.2 (0.6)
Study Week 46, N=17
  VRS Itch Mean (SD) Change from Baseline: −1.4 (0.6)
  VRS Itch Visit Mean (SD): 1.2 (0.7)
Study Week 50, N=15
  VRS Itch Mean (SD) Change from Baseline: −1.5 (0.7)
  VRS Itch Visit Mean (SD): 1.1 (0.6)
